Assay results as given in US10154983B2, “Neurodegenerative disorders and muscle diseases implicating PUFAs” (Retrotope, Inc., priority 2011, dated 2018).

What was measured:
[1] = tested on: coq null mutants; conditions: for viability of coq null mutants: 200 μM fatty acid, plate dilution assay
Procedure: FIG. 3. […] Yeast coq3, coq7 and coq9 null mutants were prepared in the W303 yeast genetic background (WT). Yeast strains were grown in YPD medium (1% Bacto-yeast extract, 2% Bacto-peptone, 2% dextrose) and harvested while in log phase growth (OD600 nm=0.1-1.0). Cells were washed twice with sterile water and resuspended in phosphate buffer (0.10 M sodium phosphate, pH 6.2, 0.2% dextrose) to an OD600 nm=0.2. Samples were removed and 1:5 serial dilutions starting at 0.20 OD/ml were plated on YPD plate medium, to provide a zero time untreated control (shown in top left panel). The designated fatty acids were added to 200 μM final concentration to 20 ml of yeast in phosphate buffer. At 2 h, 4 h, and 16 h samples were removed, 1:5 serial dilutions prepared, and spotted onto YPD plate medium. Pictures were taken after 2 days of growth at 30° C.
FIG. 4. […] The fatty acid sensitive assay was performed as described in FIG. 3, except that 100 μl aliquots were removed at 1, 2, and 4 h and, following dilution, spread onto YPD plates. Pictures were taken after 2 to 2.5 days, and the number of colonies counted.
Q-less yeast (coq mutants) provide an ideal system to assess in vivo autoxidation of fatty acids. Coenzyme Q (ubiquinone or Q) serves as a small lipophilic antioxidant as well as an electron shuttle in the respiratory chain of the mitochondrial inner membrane. Ten S. cerevisiae genes (COQ1-COQ10) are required for coenzyme Q biosynthesis and function, and the deletion of any results in respiratory deficiency (Tran U C, Clarke C F. Mitochondrion 2007; 7S,S62).
A plate dilution assay can be used to assess PUFA sensitivity. This assay can be performed by spotting serial five-fold dilutions of aliquots onto YPD plate media (FIG. 3). The sensitivity of the different strains can be observed by visual inspection of the density of cells in each spot.

[2] = tested on: Wild-type yeast; conditions: 200 μM fatty acid, 4 h incubation
Procedure: Uptake of exogenously supplied fatty acids by yeast. WT (W303) yeast were harvested at log phase and incubated in the presence of 200 μM of the designated fatty acid for either 0 or 4 h.
Wild-type yeast were harvested during log phase growth and incubated in the presence of exogenously added fatty acid (for 0 or 4 h) in the presence of phosphate buffer plus 0.20% dextrose, as described for the fatty acid sensitivity assay. Cells were harvested, washed twice with 10 ml sterile water, and the yeast cell pellets were then processed by alkaline methanolysis as described above. The fatty acids are detected as methylesters (FAMEs) following GC-MS with C17:0 added as an internal standard (FIG. 6). The amounts of 18:3 and D4 detected after 4 h incubation were extrapolated from the calibration curve.

[3] = tested on: wild-type (strain W303-1B) cells; conditions: four hour treatment; cited from earlier work
[4] = tested on: coq null mutants; conditions: four hour treatment; cited from earlier work
[5] = Kinetics of the oxidation of mixtures of D2-LA and LA; type: physicochemical; conditions: data not shown
Procedure: FIG. 8. Dependence of the rate of oxidation of the mixture of LA and D2-LA in chlorobenzene solution on mixture composition. Conditions: [LA]+[11,11-d2-LA]=0.775 M; [AMVN]=0.0217 M; 37° C. RIN=(1.10±0.08)×10^−7 M/sec.
To simulate the likely in vivo conditions, the kinetics of the oxidation of the mixtures of D2-LA and LA were studied (FIG. 8). In the experiments, the concentration of LA plus 11,11-d2-LA was 0.775 M; the concentration of AMVN was 0.0217 M; and the reactions were carried out at 37° C. The results afforded an RIN of 1.10±0.08×10^−7 M/sec.

[6] = Kinetics of oxygen consumption during oxidation in chlorobenzene initiated by AMVN; type: physicochemical
Procedure: FIG. 7. Kinetics of O2 consumption accompanied the oxidation of 0.71 M LA (plots 1 and 2) and 0.71 M D2-LA (plot 3) in chlorobenzene initiated by 40 mM AMVN at 37° C. Plot 2—0.23 mM HPMC was added to 0.71 M LA.
The kinetics of oxygen consumption during the oxidation of LA and D2-LA was studied with a glass capillary microvolumeter (FIG. 7). The rate of oxidation, ROX, was measured as a slope of [O2] traces. The rate of initiation, RIN, was determined by the inhibitor method with HPMC (“6-hydroxy-2,2,5,7,8-pentamethylbenzochroman”) as a reference inhibitor. RIN was calculated from the induction period of inhibited oxidation, tIND: RIN=2·[HPMC]/tIND. […] When the process was inhibited by 0.23 mM chain-breaking antioxidant HPMC, the duration of the induction period, tIND, was about 48 min, with the RIN value of around 0.16×10^−6 M/s. […] The latter precludes a direct determination of RIN. […] An estimated kinetic isotope effect (“KIE”), from comparison of ROX for LA and D2-LA, was around 6.1×10^−6/0.18×10^−6≈35. A similar KIE was determined during the oxidation of LA and 11,11-d2-LA in Triton X-100 aqueous micelles (data not shown). For comparative purposes, the theoretical KIE is 6.9 at 25° C. See Carpenter, “Determination of Organic Reaction Mechanisms” (John Wiley & Sons, 1984), p. 89.

Row | Structure (SMILES) | protection in the yeast model [1] | incorporation by yeast [2] | viability of coq null mutants [1] | length of the kinetic chain v=ROX/RIN [6] | also measured
1 | [2H]C([2H])(/C=C\CC)/C=C\CC/C=C\CCCCCCC(=O)O [14,14-D2-linolenic acid, 14,14-Dideutero-cis,cis,cis-octadeca-8,12,15-trienoic acid] | comparable protection |  |  |  | 
2 | [2H]C([2H])(/C=C\C/C=C\CC)C/C=C\CCCCCCC(=O)O [11,11-D2-linolenic acid, 11,11-Dideutero-cis,cis,cis-octadeca-8,12,15-trienoic acid] | comparable protection |  |  |  | 
3 | CC/C=C\C/C=C\C/C=C\CCCCCCCC(=O)O [linolenic acid, (9Z,12Z,15Z)-9,12,15-Octadecatrienoic acid, reference compound] |  | avidly incorporate | dramatic loss of viability |  | wild-type cells remaining viable [3]: 70%; Q-less (coq2, coq3, and coq5) yeast mutants viable following treatment [4]: Less than 1%
4 | [2H]C([2H])(/C=C\CCCCC)/C=C\CCCCCCCC(=O)O [D2-LA, 11,11-Dideutero-cis,cis-octadeca-9,12-dienoic acid] |  |  |  | ≈ 1.1 | effect on oxidation of mixture with non-deuterated methyl linoleate [5]: qualititatively similar effect; effect of addition of HPMC [6]: did not result in the decrease in ROX and the appearance of any detectable induction period
5 | [2H]C([2H])(/C=C\CC)/C=C\C([2H])([2H])/C=C\CCCCCCCC(=O)O [D4-linolenic acid, 11,11,14,14-Tetradeutero-cis,cis,cis-octadeca-8,12,15-trienoic acid] |  | avidly incorporate | not killed |  | viability of treated cells compared with oleic ([1]; quantitative colony counting): similar
6 | CCCCC/C=C\C/C=C\CCCCCCCC(=O)O [LA, (9Z,12Z)-9,12-Octadecadienoic acid, reference compound] |  |  |  | 38±3 | 
